Measured values as given in ChEMBL document CHEMBL1201862, “PubChem BioAssay data set” (2004).
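1) Cells in 96-well plates. 2) Compound, 48 h, 5 concentrations. 3) Linear interpolation between surrounding doses. 4) Unreached endpoint = highest concentration. The concentration for 50% growth inhibition is given as GI50.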 Calls of active or inactive are those of the source. Rule as the data show it: active = GI50 up to about 1.1 µM and inactive = higher.

Assays:
Test in all cases: inhibition of tumour cell growth, NCI panel, 48 h
[1] = tested on: M14
[2] = tested on: XF498
[3] = tested on: HCT-15
[4] = tested on: DMS-114
[5] = tested on: KM-20L2
[6] = tested on: HOP-92
[7] = tested on: SW-620
[8] = tested on: SR
[9] = tested on: SNB-19
[10] = tested on: HCC 2998
[11] = tested on: OVCAR-5
[12] = tested on: A549
[13] = tested on: UO-31
[14] = tested on: UACC-257
[15] = tested on: U-251
[16] = tested on: EKVX
[17] = tested on: KM12
[18] = tested on: NCI-H522
[19] = tested on: IGROV-1
[20] = tested on: SK-MEL-28
[21] = tested on: DMS-273
[22] = tested on: K562
[23] = tested on: MOLT-4
[24] = tested on: DLD-1
[25] = tested on: LXFL 529
[26] = tested on: NCI-H226
[27] = tested on: SK-OV-3
[28] = tested on: LOX IMVI
[29] = tested on: OVCAR-3
[30] = tested on: HT-29
[31] = tested on: CAKI-1
[32] = tested on: NCI-H460
[33] = tested on: CCRF-CEM
[34] = tested on: SF-539
[35] = tested on: M19-MEL
[36] = tested on: SF-295
[37] = tested on: 786-0
[38] = tested on: ACHN
[39] = tested on: HL-60
[40] = tested on: HOP-62
[41] = tested on: RXF 393
[42] = tested on: OVCAR-8
[43] = tested on: SK-MEL-5
[44] = tested on: HCT-116
[45] = tested on: HOP-18
[46] = tested on: SN12C
[47] = tested on: SNB-78
[48] = tested on: Malme-3M
[49] = tested on: OVCAR-4
[50] = tested on: UACC-62
[51] = tested on: SK-MEL-2
[52] = tested on: COLO 205
[53] = tested on: SF-268
[54] = tested on: TK-10
[55] = tested on: RPMI-8226
[56] = tested on: A498
[57] = tested on: NCI-H23
[58] = tested on: SNB-75
[59] = tested on: RXF 631

O=C(Cc1ccccc1)NN1C(=O)C(Cl)C1c1cccc([N+](=O)[O-])c1 (centres undefined)
GI50 [1]: 46.7 µM (inactive) | GI50 [2]: 31.2 µM (inactive) | GI50 [3]: 58.5 µM | GI50 [4]: 28.5 µM (inactive) | GI50 [5]: > 83.4 µM (inactive) | GI50 [6]: 14 µM (inactive) | GI50 [7]: 27.6 µM (inactive) | GI50 [8]: 3.06 µM (inactive) | GI50 [9]: > 92.9 µM (inactive) | GI50 [10]: > 100 µM (inactive) | GI50 [11]: > 79.1 µM (inactive) | GI50 [12]: > 100 µM (inactive) | GI50 [13]: 31.7 µM (inactive) | GI50 [14]: 36.6 µM (inactive) | GI50 [15]: 63.2 µM (inactive) | GI50 [16]: 34.8 µM (inactive) | GI50 [17]: > 90.4 µM (inactive) | GI50 [18]: 1.91 µM (inactive) | GI50 [19]: 4.18 µM (inactive) | GI50 [20]: > 92.9 µM (inactive) | GI50 [21]: 36.5 µM (inactive) | GI50 [22]: 21.3 µM (inactive) | GI50 [23]: 12.4 µM (inactive) | GI50 [24]: 37.9 µM (inactive) | GI50 [25]: 14.2 µM (inactive) | GI50 [26]: > 42.9 µM (inactive) | GI50 [27]: 90.6 µM (inactive) | GI50 [28]: 5.31 µM (inactive) | GI50 [29]: 43.4 µM (inactive) | GI50 [30]: 3.68 µM (inactive) | GI50 [31]: 38.5 µM (inactive) | GI50 [32]: 35.2 µM (inactive) | GI50 [33]: 2.33 µM (inactive) | GI50 [34]: 80 µM (inactive) | GI50 [35]: 5.16 µM (inactive) | GI50 [36]: > 100 µM (inactive) | GI50 [37]: 12.3 µM (inactive) | GI50 [38]: > 60.5 µM (inactive) | GI50 [39]: 10.4 µM (inactive) | GI50 [40]: > 100 µM (inactive) | GI50 [41]: 25.6 µM (inactive) | GI50 [42]: 27.9 µM (inactive) | GI50 [43]: 39.9 µM (inactive) | GI50 [44]: 23.4 µM (inactive) | GI50 [45]: 31.3 µM (inactive) | GI50 [46]: 38.8 µM (inactive) | GI50 [47]: > 71.8 µM (inactive) | GI50 [48]: > 78.5 µM (inactive) | GI50 [49]: 29.8 µM (inactive) | GI50 [50]: 31.3 µM (inactive) | GI50 [51]: 31.7 µM (inactive) | GI50 [52]: > 100 µM (inactive) | GI50 [53]: 44.7 µM (inactive) | GI50 [54]: > 100 µM (inactive) | GI50 [55]: 16.6 µM (inactive) | GI50 [56]: > 100 µM (inactive) | GI50 [57]: 26.4 µM (inactive) | GI50 [58]: 0.729 µM (active)

CC(C)c1ccc(C2C3=C(N=C4SCC(=O)N42)C(=O)c2ccccc23)cc1 (centres undefined)
GI50 [1]: > 100 µM (inactive) | GI50 [2]: 87.3 µM (inactive) | GI50 [3]: 88.9 µM | GI50 [4]: 53.5 µM (inactive) | GI50 [5]: > 100 µM (inactive) | GI50 [6]: 15.7 µM (inactive) | GI50 [7]: > 100 µM (inactive) | GI50 [9]: 64.9 µM (inactive) | GI50 [10]: > 100 µM (inactive) | GI50 [11]: > 100 µM (inactive) | GI50 [12]: 58.9 µM (inactive) | GI50 [13]: 5.6 µM (inactive) | GI50 [14]: > 100 µM (inactive) | GI50 [15]: 74 µM (inactive) | GI50 [16]: 77.3 µM (inactive) | GI50 [17]: > 100 µM (inactive) | GI50 [18]: 22.4 µM (inactive) | GI50 [19]: > 100 µM (inactive) | GI50 [20]: 35.1 µM (inactive) | GI50 [21]: > 100 µM (inactive) | GI50 [22]: 54 µM (inactive) | GI50 [23]: 49.7 µM (inactive) | GI50 [24]: 81.8 µM (inactive) | GI50 [25]: 52.4 µM (inactive) | GI50 [26]: 51.4 µM (inactive) | GI50 [27]: > 100 µM (inactive) | GI50 [29]: 60 µM (inactive) | GI50 [30]: > 100 µM (inactive) | GI50 [31]: 99.1 µM (inactive) | GI50 [32]: > 100 µM (inactive) | GI50 [33]: 57.3 µM (inactive) | GI50 [34]: > 100 µM (inactive) | GI50 [35]: 83.4 µM (inactive) | GI50 [36]: 82.8 µM (inactive) | GI50 [37]: > 100 µM (inactive) | GI50 [59]: > 100 µM (inactive) | GI50 [38]: 73.1 µM (inactive) | GI50 [39]: 36 µM (inactive) | GI50 [40]: > 100 µM (inactive) | GI50 [42]: > 100 µM (inactive) | GI50 [43]: 52.6 µM (inactive) | GI50 [44]: 70.6 µM (inactive) | GI50 [46]: 41 µM (inactive) | GI50 [48]: > 100 µM (inactive) | GI50 [49]: 43.4 µM (inactive) | GI50 [50]: 33.7 µM (inactive) | GI50 [51]: > 100 µM (inactive) | GI50 [52]: > 100 µM (inactive) | GI50 [53]: 37.1 µM (inactive) | GI50 [54]: > 100 µM (inactive) | GI50 [55]: 43.3 µM (inactive) | GI50 [56]: > 100 µM (inactive) | GI50 [57]: 75.3 µM (inactive) | GI50 [58]: 22.3 µM (inactive)

Cc1nn2c(=O)n(-c3cccc(-n4nnc5c(-c6ccccc6)c(C)nn5c4=O)c3C)nnc2c1-c1ccccc1
GI50 [1]: 15.2 µM (inactive) | GI50 [2]: 20.9 µM (inactive) | GI50 [3]: 16.1 µM | GI50 [4]: 13.8 µM (inactive) | GI50 [5]: 19.5 µM (inactive) | GI50 [6]: 55.5 µM (inactive) | GI50 [7]: 20.6 µM (inactive) | GI50 [8]: 12.9 µM (inactive) | GI50 [9]: > 100 µM (inactive) | GI50 [10]: 20.5 µM (inactive) | GI50 [11]: > 100 µM (inactive) | GI50 [12]: 33.3 µM (inactive) | GI50 [13]: 8.91 µM (inactive) | GI50 [14]: 22.4 µM (inactive) | GI50 [15]: 25.2 µM (inactive) | GI50 [16]: 38.9 µM (inactive) | GI50 [17]: > 10 µM (inactive) | GI50 [18]: 15.5 µM (inactive) | GI50 [19]: 22.4 µM (inactive) | GI50 [21]: 66.8 µM (inactive) | GI50 [22]: 20.1 µM (inactive) | GI50 [23]: 11.1 µM (inactive) | GI50 [24]: 22.8 µM (inactive) | GI50 [25]: 24.7 µM (inactive) | GI50 [26]: 45.3 µM (inactive) | GI50 [27]: > 100 µM (inactive) | GI50 [28]: 27.7 µM (inactive) | GI50 [29]: 6.95 µM (inactive) | GI50 [30]: 35.7 µM (inactive) | GI50 [31]: 39.4 µM (inactive) | GI50 [32]: 18.5 µM (inactive) | GI50 [33]: 19.9 µM (inactive) | GI50 [34]: 24.4 µM (inactive) | GI50 [35]: 23.6 µM (inactive) | GI50 [36]: 44.9 µM (inactive) | GI50 [37]: 94.4 µM (inactive) | GI50 [38]: 18.7 µM (inactive) | GI50 [39]: 18.2 µM (inactive) | GI50 [40]: 97.7 µM (inactive) | GI50 [41]: 34.6 µM (inactive) | GI50 [42]: 24.7 µM (inactive) | GI50 [43]: 16.6 µM (inactive) | GI50 [44]: 15.8 µM (inactive) | GI50 [45]: 4.94 µM (inactive) | GI50 [46]: 17.1 µM (inactive) | GI50 [47]: 82.2 µM (inactive) | GI50 [48]: 14.2 µM (inactive) | GI50 [49]: 15.6 µM (inactive) | GI50 [50]: 46.1 µM (inactive) | GI50 [51]: 3.33 µM (inactive) | GI50 [52]: 17.5 µM (inactive) | GI50 [53]: 46 µM (inactive) | GI50 [54]: 47.9 µM (inactive) | GI50 [55]: 17.6 µM (inactive) | GI50 [56]: 83.6 µM (inactive) | GI50 [57]: 98.4 µM (inactive) | GI50 [58]: 37.4 µM (inactive)
